Measured values: article PMC5768801, “The PII signaling protein from red algae represents an evolutionary link between cyanobacterial and Chloroplastida PII proteins” (Scientific Reports, 2018)
“Also recorded” adds a separate entry of the source. Like-named read-outs stand apart in the source and are kept apart here.

Key:
PhyscoPII = assay: ITC binding of small effector molecules to plant-moss PhyscoPII; set-up: species or system Physcomitrella patens
Protocol: To gain additional insights into the ligand binding properties of PpPII in comparison to cyanobacterial and chloroplastid PII proteins, isothermal titration calorimetry (ITC) experiments were performed using highly purified Strep-tagged or His-tagged recombinant PpPII, SyPII, CrPII, and PhyscoPII proteins (Supplementary Fig. S1) with different protein/ligand/ concentrations to determine the best fitting conditions of the binding model. The titration experiments were repeated with different protein preparations to confirm the reproducibility of the results. The raw isothermal data were fitted into one-binding site as well as three-sequential binding sites to define the best fitting model. Fitting using a one binding site model states an average Kd value for all available binding sites and the mean of the stoichiometry of bound ligands.
The ITC experiments were done using a VP-ITC microcalorimeter (MicroCal, LCC). All details for determination of binding constants for small effector molecules using ITC are fully described in the supplementary information. Heat isotherms of the dilution of the ligand in the cell buffer were collected in a blank run for each experiment in the absence of protein. The binding isotherms were calculated from received data and fitted to one-site and three-sequential binding sites models using the MicroCal ORIGIN software (Northampton) as described. All titrations were performed in duplicates with different purification batches of recombinant PII proteins. The association binding constant (Ka) was generated from the software by de-convolution and curve fitting. For calculation of dissociation constant (Kd), the Ka value was inversed.
Supplementary Information […]
Determination of Binding Constants for Small Effector Molecules using Isothermal […]
The binding of the small effector molecules to the recombinant PII proteins was tested using isothermal titration calarmity (ITC); VP-ITC microcalorimeter (MicroCal). All titrations were performed on 20°C using […] injection syringe with injection 6 µl or 10 µl of the tested ligands for 45 or 29 times, respectively into the cell (1.4 ml) with continuous stirring at 155 rpm. All tested ligands were high grade, prepared freshly in the same buffer of the protein and purchased from Sigma-Aldrich. Heat isotherms for the dilution of the ligand in the cell buffer were collected in a blank run in the absence of protein. The received calorimetric data were analyzed using MicroCal Origin software and fitted into one-site and three-sequential binding sites models, as indicated by the manufacture for calculation of binding isotherms9. For data reproducibility, the titrations were performed in duplicates with different purification batches of recombinant PII proteins. The association binding constant (Ka) was generated from the software by de-convolution and curve fitting. For calculation of dissociation constant (Kd), the Ka value was inversed.
5 mM MgCl2, 0.5 mM EDTA, and 10% glycerol (pH 7.6). […]
For determination the binding isotherms of plant-moss PhyscoPII protein, a strep-tagged recombinant protein (5 or 6 µM trimeric concentration) was used in system composed of 20 mM

ScNAGK = molecular target: T1, ScNAGK (Synechocystis sp., UniProt P73326); assay: AGPR-coupled NAGK activity assay without PpPII; format: biochemical, Synechocystis sp. PCC 6803; conditions: absence of PpPII, comparing 0 and 4 mM ADP, at 1 mM or 2 mM ATP
T1 sequence (P73326 1-297): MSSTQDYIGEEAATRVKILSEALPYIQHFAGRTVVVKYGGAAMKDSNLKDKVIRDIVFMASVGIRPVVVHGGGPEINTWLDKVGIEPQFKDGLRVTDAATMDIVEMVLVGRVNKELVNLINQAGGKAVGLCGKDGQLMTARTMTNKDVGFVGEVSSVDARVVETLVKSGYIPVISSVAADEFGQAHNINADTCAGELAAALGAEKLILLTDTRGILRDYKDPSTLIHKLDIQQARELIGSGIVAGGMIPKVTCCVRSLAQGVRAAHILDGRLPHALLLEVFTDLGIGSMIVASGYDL
Text: (§1) All available structural information of PII proteins revelas that ATP and ADP bind to the same binding sites[2],[7]. When ATP and ADP are simultaneously present, they will compete for binding to the PII trimer. Since, the ATP/ADP binding site of the red algal PpPII protein is highly conserved (Fig. 1), competition between the nucleotides will occur. Since the activation of NAGK by PII is dependent on the ATP-ligated state of PII[9] and ADP inhibits PII-NAGK complex formation[9],[31], competition between ATP/ADP for PII binding can be monitored by measuring NAGK activity[31] under different ATP/ADP ratios. For this assay, we used an AGPR-coupled activity assay for NAGK[33], which allows measurement of NAGK activity in presence of ADP. Different concentrations of ADP were added to reaction mixtures containing either 1 mM or 2 mM ATP, in the absence or presence of PpPII (Fig. 8). Addition of ADP led to a monotonical and shallow decrease in the activity of ScNAGK at both fixed ATP concentration. […]
(§2) The change in NADPH absorbance was recorded at 340 nm as described previously[31],[33], in a reaction buffer composed of 50 mM potassium phosphate (pH 7.0), 50 mM KCl, 20 mM MgCl2, 0.2 mM NADPH and 0.5 mM DTT. […] The reaction was started by the addition of ScNAGK and was recorded for 10 min with a spectrophotometer (SPECORD 210 PLUS, Analytik Jena). Kinetic constants were calculated as descried above.

[1] = molecular target: ScNAGK in the presence of PpPII (Porphyra purpurea, UniProt P51254); assay: AGPR-coupled NAGK activity assay with PpPII; format: biochemical, Synechocystis sp. PCC 6803; Porphyra purpurea; conditions: 4 mM ADP with 1 mM ATP
Chain of ScNAGK in the presence of PpPII (P51254 whole entry): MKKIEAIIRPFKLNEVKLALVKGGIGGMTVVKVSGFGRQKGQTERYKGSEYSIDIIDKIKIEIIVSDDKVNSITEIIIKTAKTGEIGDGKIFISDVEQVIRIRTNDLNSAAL
Text: as §1, §2

SyPII = molecular target: T2, SyPII (Synechococcus elongatus, UniProt P0A3F4); conditions: cited from earlier work
T2 construct: Strep-tag; made in house
T2 sequence (P0A3F4 whole entry): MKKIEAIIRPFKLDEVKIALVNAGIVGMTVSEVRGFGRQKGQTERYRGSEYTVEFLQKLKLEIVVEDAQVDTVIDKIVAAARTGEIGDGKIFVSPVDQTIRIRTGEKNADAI

Nc1ncnc2c1ncn2[C@@H]1O[C@H](COP(=O)(O)OP(=O)(O)O)[C@@H](O)[C@H]1O [ADP]
Average Kd (one-site binding model) (PhyscoPII; in presence 2-OG): No binding | Kd1 (three-sites binding model) (PhyscoPII; in presence 2-OG): No binding | Kd2 (three-sites binding model) (PhyscoPII; in presence 2-OG): No binding | Kd3 (three-sites binding model) (PhyscoPII; in presence 2-OG): No binding | Average Kd (one-site binding model) (PhyscoPII; titrant alone): unable to detect any binding; also recorded: No binding | Kd1 (three-sites binding model) (PhyscoPII; titrant alone): No binding | Kd2 (three-sites binding model) (PhyscoPII; titrant alone): No binding | Kd3 (three-sites binding model) (PhyscoPII; titrant alone): No binding | reduction of ScNAGK activity (ScNAGK): about 1.8 fold | ScNAGK activity in the presence of PpPII at the highest ADP/ATP ratio [1]: as low as ScNAGK activity in the absence of PpPII | Kd (SyPII; read-out: Kd1 (three-sites binding model), titrant alone, given in parentheses for comparison): 10.6 µM | Kd (SyPII; read-out: Kd2 (three-sites binding model), titrant alone, given in parentheses for comparison): 19.3 µM | Kd (SyPII; read-out: Kd3 (three-sites binding model), titrant alone, given in parentheses for comparison): 133 µM
